According to ChEMBL document CHEMBL5291721, “A preclinical secondary pharmacology resource illuminates target-adverse drug reaction associations of marketed drugs” (Nat Commun, 2023):

How the values were obtained:
[1] = biological target: Gamma-aminobutyric acid receptor subunit alpha-1/alpha-2/beta-2/gamma-2 (Homo sapiens, UniProt P14867+P18507+P47869+P47870); assay type: functional, cell-based
Estrogen receptor = biological target: T1, Estrogen receptor (Homo sapiens, UniProt P03372)
T1 sequence (P03372 whole entry): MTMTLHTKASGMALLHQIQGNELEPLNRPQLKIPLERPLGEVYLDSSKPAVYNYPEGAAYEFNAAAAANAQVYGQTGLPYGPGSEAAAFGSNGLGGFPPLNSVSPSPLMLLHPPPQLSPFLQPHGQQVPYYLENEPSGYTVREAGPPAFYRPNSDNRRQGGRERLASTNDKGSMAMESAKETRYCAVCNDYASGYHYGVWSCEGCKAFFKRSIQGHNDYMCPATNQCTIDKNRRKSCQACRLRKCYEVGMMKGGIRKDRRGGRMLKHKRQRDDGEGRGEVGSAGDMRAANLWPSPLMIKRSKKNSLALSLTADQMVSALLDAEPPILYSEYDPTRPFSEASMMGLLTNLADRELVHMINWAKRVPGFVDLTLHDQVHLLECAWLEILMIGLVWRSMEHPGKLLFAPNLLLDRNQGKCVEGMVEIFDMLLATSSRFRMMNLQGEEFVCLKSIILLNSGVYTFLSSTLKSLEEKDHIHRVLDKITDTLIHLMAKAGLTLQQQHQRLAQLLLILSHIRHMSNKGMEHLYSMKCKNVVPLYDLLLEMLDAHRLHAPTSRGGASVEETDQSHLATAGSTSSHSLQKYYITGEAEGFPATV

[2] = biological target: 5-hydroxytryptamine receptor 2A (Homo sapiens, UniProt P28223); assay type: functional, cell-based
Chain of 5-hydroxytryptamine receptor 2A (P28223 whole entry): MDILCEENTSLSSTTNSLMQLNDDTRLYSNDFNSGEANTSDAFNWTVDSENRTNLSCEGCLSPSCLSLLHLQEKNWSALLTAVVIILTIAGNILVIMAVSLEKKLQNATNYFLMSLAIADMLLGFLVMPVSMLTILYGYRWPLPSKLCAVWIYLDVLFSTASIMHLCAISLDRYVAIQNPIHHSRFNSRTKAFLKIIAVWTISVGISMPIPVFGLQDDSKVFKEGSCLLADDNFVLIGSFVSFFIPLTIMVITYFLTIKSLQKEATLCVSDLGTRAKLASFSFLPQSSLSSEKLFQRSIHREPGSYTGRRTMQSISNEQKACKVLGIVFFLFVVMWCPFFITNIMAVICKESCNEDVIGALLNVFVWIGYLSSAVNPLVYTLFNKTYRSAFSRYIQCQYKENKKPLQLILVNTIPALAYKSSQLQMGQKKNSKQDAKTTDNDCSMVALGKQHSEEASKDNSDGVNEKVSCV

Mu-type opioid receptor = Mu-type opioid receptor (Homo sapiens, UniProt P35372); assay: biochemical; assay type: functional
Chain of Mu-type opioid receptor (P35372 whole entry): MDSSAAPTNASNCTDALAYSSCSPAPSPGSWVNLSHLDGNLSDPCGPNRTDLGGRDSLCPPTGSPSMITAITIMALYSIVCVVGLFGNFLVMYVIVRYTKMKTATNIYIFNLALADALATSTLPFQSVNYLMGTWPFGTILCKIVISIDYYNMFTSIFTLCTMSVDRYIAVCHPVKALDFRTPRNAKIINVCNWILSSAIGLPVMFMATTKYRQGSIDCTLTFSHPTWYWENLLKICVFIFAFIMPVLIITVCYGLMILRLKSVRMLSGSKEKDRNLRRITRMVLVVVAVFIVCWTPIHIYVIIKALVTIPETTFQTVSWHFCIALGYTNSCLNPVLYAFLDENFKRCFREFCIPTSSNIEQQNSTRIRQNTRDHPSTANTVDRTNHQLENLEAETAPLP

B1 bradykinin receptor = biological target: T2, B1 bradykinin receptor (Homo sapiens, UniProt P46663)
T2 sequence (P46663 whole entry): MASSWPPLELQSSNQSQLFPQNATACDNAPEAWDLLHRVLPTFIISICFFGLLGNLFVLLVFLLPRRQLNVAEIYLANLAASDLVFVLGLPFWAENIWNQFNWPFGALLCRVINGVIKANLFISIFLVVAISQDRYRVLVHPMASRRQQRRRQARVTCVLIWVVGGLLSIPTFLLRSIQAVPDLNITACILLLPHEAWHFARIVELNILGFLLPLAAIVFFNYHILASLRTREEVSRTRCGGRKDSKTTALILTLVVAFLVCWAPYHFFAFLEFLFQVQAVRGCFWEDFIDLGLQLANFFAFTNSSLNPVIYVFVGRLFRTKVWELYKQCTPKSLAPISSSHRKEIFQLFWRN

[3] = biological target: T3, Corticotropin-releasing factor receptor 1 (Homo sapiens, UniProt P34998)
T3 sequence (P34998 whole entry): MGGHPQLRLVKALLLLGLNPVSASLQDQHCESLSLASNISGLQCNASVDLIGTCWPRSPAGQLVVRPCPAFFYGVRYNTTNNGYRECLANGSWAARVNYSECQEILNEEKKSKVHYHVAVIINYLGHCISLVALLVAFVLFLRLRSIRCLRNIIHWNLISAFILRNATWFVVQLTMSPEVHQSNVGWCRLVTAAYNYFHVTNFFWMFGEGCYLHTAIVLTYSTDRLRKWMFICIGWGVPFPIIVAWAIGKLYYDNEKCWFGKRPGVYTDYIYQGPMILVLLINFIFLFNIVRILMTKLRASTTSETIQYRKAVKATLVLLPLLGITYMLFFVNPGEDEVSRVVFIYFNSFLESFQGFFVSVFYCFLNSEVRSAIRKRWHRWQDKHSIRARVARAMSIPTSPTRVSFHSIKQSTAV

Melanocortin receptor 4 = Melanocortin receptor 4 (Homo sapiens, UniProt P32245)
Chain of Melanocortin receptor 4 (P32245 whole entry): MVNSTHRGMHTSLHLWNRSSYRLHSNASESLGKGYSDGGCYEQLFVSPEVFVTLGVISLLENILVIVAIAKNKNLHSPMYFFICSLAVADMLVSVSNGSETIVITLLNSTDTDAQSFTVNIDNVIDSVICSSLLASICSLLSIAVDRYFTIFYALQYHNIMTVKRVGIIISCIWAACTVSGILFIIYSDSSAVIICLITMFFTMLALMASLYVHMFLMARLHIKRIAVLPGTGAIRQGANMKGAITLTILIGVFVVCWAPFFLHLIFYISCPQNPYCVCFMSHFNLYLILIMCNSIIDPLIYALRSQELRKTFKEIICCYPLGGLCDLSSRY

Progesterone receptor = biological target: T4, Progesterone receptor (Homo sapiens, UniProt P06401); assay type: functional
T4 sequence (P06401 whole entry): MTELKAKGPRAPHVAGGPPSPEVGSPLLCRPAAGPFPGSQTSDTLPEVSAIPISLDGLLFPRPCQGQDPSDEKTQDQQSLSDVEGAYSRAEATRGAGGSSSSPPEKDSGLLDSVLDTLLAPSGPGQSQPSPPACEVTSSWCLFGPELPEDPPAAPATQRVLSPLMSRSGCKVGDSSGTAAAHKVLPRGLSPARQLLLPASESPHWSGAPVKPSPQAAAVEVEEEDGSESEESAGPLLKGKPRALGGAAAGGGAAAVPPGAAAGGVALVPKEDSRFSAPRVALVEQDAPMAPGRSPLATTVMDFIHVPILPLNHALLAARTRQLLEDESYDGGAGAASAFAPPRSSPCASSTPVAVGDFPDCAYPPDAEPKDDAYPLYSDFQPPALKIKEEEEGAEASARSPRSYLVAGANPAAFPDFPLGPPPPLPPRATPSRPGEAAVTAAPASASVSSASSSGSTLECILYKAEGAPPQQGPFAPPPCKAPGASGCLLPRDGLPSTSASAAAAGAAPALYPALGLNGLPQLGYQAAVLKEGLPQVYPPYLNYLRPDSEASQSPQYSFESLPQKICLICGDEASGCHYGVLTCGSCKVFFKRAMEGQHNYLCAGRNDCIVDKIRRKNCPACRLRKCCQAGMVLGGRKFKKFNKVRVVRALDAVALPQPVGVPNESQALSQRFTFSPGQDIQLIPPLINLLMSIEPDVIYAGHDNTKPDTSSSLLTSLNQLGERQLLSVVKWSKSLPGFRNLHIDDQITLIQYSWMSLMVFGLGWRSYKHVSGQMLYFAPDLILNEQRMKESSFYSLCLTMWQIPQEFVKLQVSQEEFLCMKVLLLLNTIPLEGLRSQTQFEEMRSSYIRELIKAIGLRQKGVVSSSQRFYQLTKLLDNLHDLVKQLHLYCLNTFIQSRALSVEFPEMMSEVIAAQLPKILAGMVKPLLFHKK
Further: assay procedure not described here.

Chain of Gamma-aminobutyric acid receptor subunit alpha-1/alpha-2/beta-2/gamma-2 (P14867 whole entry): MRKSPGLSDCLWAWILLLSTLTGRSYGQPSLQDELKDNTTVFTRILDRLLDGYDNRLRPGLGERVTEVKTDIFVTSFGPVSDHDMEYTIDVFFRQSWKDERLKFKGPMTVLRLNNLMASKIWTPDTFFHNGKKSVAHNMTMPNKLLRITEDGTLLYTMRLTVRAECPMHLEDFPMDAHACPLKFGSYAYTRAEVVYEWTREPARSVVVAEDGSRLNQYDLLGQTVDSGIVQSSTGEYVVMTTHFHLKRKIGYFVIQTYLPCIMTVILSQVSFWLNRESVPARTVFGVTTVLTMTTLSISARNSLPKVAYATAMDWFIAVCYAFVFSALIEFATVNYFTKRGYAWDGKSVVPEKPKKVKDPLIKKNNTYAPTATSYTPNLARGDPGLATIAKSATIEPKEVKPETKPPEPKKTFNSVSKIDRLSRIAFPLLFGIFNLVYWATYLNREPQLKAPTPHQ
Chain of Gamma-aminobutyric acid receptor subunit alpha-1/alpha-2/beta-2/gamma-2 (P47870 whole entry): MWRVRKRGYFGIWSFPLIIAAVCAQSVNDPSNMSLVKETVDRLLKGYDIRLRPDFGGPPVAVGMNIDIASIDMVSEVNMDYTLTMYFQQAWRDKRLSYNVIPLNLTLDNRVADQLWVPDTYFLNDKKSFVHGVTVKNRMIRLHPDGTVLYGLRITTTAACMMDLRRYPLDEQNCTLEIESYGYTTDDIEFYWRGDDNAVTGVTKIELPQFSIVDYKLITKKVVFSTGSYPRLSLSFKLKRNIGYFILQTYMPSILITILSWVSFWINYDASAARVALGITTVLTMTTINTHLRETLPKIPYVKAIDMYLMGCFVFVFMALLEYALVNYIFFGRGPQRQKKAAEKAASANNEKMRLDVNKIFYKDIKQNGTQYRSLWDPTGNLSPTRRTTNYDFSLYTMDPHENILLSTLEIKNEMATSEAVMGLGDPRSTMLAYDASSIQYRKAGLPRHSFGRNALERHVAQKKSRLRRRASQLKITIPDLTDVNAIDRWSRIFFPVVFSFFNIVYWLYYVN
Chain of Gamma-aminobutyric acid receptor subunit alpha-1/alpha-2/beta-2/gamma-2 (P18507 whole entry): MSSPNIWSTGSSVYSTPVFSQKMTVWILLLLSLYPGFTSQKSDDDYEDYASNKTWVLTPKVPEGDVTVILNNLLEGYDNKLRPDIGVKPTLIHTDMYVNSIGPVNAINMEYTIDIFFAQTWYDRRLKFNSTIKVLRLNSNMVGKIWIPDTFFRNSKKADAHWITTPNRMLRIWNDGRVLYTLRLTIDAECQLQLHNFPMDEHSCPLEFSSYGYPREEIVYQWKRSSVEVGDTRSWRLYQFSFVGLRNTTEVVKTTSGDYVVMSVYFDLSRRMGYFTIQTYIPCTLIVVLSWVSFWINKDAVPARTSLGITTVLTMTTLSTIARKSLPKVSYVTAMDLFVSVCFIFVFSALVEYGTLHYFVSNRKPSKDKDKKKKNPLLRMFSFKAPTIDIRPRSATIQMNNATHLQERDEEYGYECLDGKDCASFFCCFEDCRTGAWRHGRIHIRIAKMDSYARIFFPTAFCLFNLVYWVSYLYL
Chain of Gamma-aminobutyric acid receptor subunit alpha-1/alpha-2/beta-2/gamma-2 (P47869 whole entry): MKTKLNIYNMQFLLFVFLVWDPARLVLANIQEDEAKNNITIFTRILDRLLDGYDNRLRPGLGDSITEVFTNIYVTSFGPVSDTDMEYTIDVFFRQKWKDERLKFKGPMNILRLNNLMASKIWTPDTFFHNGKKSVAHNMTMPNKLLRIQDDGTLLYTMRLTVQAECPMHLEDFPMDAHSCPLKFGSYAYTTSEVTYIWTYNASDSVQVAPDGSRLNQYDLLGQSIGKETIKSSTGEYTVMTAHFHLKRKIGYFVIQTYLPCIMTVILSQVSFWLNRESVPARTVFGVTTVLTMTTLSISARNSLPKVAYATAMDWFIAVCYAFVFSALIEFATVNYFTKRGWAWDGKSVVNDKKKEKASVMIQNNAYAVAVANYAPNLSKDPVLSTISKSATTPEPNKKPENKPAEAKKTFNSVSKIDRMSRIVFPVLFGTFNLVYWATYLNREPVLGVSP

| Compound | AC50 [1] [µM] | AC50 (Estrogen receptor) [µM] | AC50 [2] [µM] | AC50 (Mu-type opioid receptor) [µM] | AC50 (B1 bradykinin receptor) [µM] | AC50 [3] [µM] | AC50 (Melanocortin receptor 4) [µM] | AC50 (Progesterone receptor) [µM] |
| --- | --- | --- | --- | --- | --- | --- | --- | --- |
| NC1CCN(c2c(F)cc3c(=O)c(C(=O)O)cn(C4CC4)c3c2Cl)C1 (configuration not stated) [CLINAFLOXACIN] | > 300 | – | – | – | – | – | – | – |
| CN(C)CC/C=C1\c2ccccc2CSc2ccccc21 [DOTHIEPIN] | – | > 30 | > 30 | > 30 | – | – | – | – |
| CN1CCN(C2=Nc3ccccc3Sc3ccc(Cl)cc32)CC1 [CLOTHIAPINE] | > 10 | – | > 30 | 11 | – | – | – | – |
| COc1cc2nc(N3CCN(C(=O)c4ccco4)CC3)nc(N)c2cc1OC [PRAZOSIN] | – | > 30 | – | > 30 | > 30 | > 30 | > 30 | – |
| C=CCN1C[C@H](C(=O)N(CCCN(C)C)C(=O)NCC)C[C@@H]2c3cccc4[nH]cc(c34)C[C@H]21 [CABERGOLINE] | > 30 | > 10 | 0.0626 | – | – | – | > 10 | > 10 |
| CCCC1O[C@@H]2C[C@H]3[C@@H]4CCC5=CC(=O)C=C[C@]5(C)[C@H]4[C@@H](O)C[C@]3(C)[C@]2(C(=O)CO)O1 (some centres not stated) [BUDESONIDE] | – | – | – | – | – | – | > 10 | – |
| O=[N+]([O-])O[C@@H]1CO[C@H]2[C@@H]1OC[C@@H]2O [ISOSORBIDE MONONITRATE] | – | > 30 | – | – | > 30 | > 30 | > 30 | – |
| COc1ccccc1N1CCN(CC(O)COc2cccc3ccccc23)CC1 (configuration not stated) [NAFTOPIDIL] | – | – | > 30 | 26 | – | – | – | > 30 |
| COC1=C(OC)C(=O)C(C/C=C(\C)CC/C=C(\C)CC/C=C(\C)CC/C=C(\C)CC/C=C(\C)CC/C=C(\C)CC/C=C(\C)CC/C=C(\C)CC/C=C(\C)CCC=C(C)C)=C(C)C1=O [UBIDECARENONE] | > 30 | – | > 30 | > 30 | – | – | – | – |
| Cc1cc(C)c(NC(=O)CN(CC(=O)O)CC(=O)O)c(C)c1Br [MEBROFENIN] | > 30 | – | > 30 | > 30 | – | – | – | – |
| CC[C@H]1CN2CCc3cc(OC)c(OC)cc3[C@@H]2C[C@@H]1C[C@H]1NCCc2cc(OC)c(OC)cc21 [EMETINE] | > 30 | – | – | > 30 | – | – | – | > 30 |
| CCC(CC)(CC(=O)Nc1cccc(/C=C/c2nc(C3CCC3)cs2)c1)C(=O)O | – | > 30 | – | – | – | – | – | > 30 |
| Cc1oc(=O)oc1CN1CCN(c2cc3c(cc2F)c(=O)c(C(=O)O)c2n3C(C)S2)CC1 (configuration not stated) [PRULIFLOXACIN] | > 30 | – | > 30 | > 30 | – | – | – | – |
| COc1ccc(C(=O)Nc2ccccc2CCC2CCCCN2C)cc1 (configuration not stated) [ENCAINIDE] | – | > 30 | > 30 | – | > 30 | > 30 | > 30 | – |
| CCCCCNC(=N)N/N=C/c1c[nH]c2ccc(OC)cc12 [TEGASEROD] | – | – | > 30 | > 30 | > 30 | > 30 | 5.34 | > 30 |
| CC[C@@H](C(N)=O)N1CCCC1=O | > 30 | > 30 | > 30 | > 30 | – | – | – | > 30 |
| O=[N+]([O-])c1cn2c(n1)OC[C@@H](OCc1ccc(OC(F)(F)F)cc1)C2 [PRETOMANID] | – | – | – | – | > 30 | – | > 30 | – |
| CN(C)CCC=C1c2ccccc2C=Cc2ccccc21 [CYCLOBENZAPRINE] | – | > 30 | – | – | > 30 | > 30 | > 30 | – |
| CCOc1ccc(Cc2cc([C@@H]3O[C@H](CO)[C@@H](O)[C@H](O)[C@H]3O)ccc2Cl)cc1 [DAPAGLIFLOZIN] | – | > 30 | – | – | – | – | > 30 | – |
| CCOc1ccccc1OCC1CNCCO1 (configuration not stated) [VILOXAZINE] | – | > 30 | – | – | > 30 | > 30 | > 30 | – |
| CN(C)CCc1c[nH]c2ccc(C[C@H]3COC(=O)N3)cc12 [ZOLMITRIPTAN] | > 30 | > 30 | 14 | > 30 | – | – | – | > 30 |
